These compounds were tested on DUX4 (assay: DUX4 repression assay in primary FSHD cells (protocol of Example 2 of WO2019/115711)). Details: incubated 72 hours, reference compounds.
Type: cell-based, human
Excerpt: Following the central role of DUX4 in the consensus disease hypothesis for FSHD, a therapeutic approach with a disease-modifying potential is expected to rely on the inhibition of DUX4. The inventors have identified the compounds according to the invention as being able to achieve DUX4 repression in muscle cells. This invention has been made using primary FSHD patient-derived muscle cells. Because of the primate-specificity of the FSHD locus and questionable relevance of recombinant, immortalized, or tumorigenic cell or animal models to study endogenous DUX4 regulatory mechanisms, primary patient-derived muscle cells are the most relevant disease model. Assays based on immortalized cells bear the risk of altered epigenomes, thereby limiting their relevance in studying the endogenous regulation of DUX4 expression. Particularly the subtelomeric location of D4Z4 and the importance of the D4Z4 epigenome in the stability of DUX4 repression (Stadler et al., 2013, DOI: 10.1038/nsmb.2571) underscore the necessity of using primary muscle cells to discover physiologically relevant drug targets that regulate the expression of DUX4.
The DUX4 repression of compounds of general formula (I) was assayed following a known protocol (the protocol of Example 2 of WO2019/115711). Several compounds were incubated with primary FSHD cells for 72 hours. Results are shown in Table 4, showing DUX4 Count % inhibition.
With `CN1CCN(C(=O)Cc2nn(C(C)(C)C)c(-c3ccc(F)cc3)c2-c2ccncc2)CC1` [Compound 106, 2-[1-tert-butyl-5-(4-fluorophenyl)-4-(pyridin-4-yl)-1H-pyrazol-3-yl]-1-(4-methylpiperazin-1-yl)ethan-1-one] the “DUX4 count % inhibition” value was 17.3%. With `CN1CCN(C(=O)Cn2cnc(-c3ccc(F)cc3)c2-c2cccnc2)CC1` [Compound 107, 2-[4-(4-fluorophenyl)-5-(pyridin-3-yl)-1H-imidazol-1-yl]-1-(4-methylpiperazin-1-yl)ethan-1-one] the “DUX4 count % inhibition” value was 10.7%. With `O=C(Cn1cnc(-c2ccc(F)cc2)c1-c1cccnc1)N1CCNCC1` [Compound 108, 2-[4-(4-fluorophenyl)-5-(pyridin-3-yl)-1H-imidazol-1-yl]-1-(piperazin-1-yl)ethan-1-one] the “DUX4 count % inhibition” value was 6.6%.
